# Results reported in patent US7294509B2, “Pre-adipose cell lines” (Nestec S.A., priority 2000, dated 2007).
# What was measured:
# Assay type in all cases: cell-based, human
# Chub-S7 cells [1] = test: Adipocyte marker gene expression by real-time RT-PCR during Chub-S7 cell differentiation; details: for LPL mRNA fold-increase / aP2 mRNA fold-increase: day 17 as compared to day 0, 1 μM Dex alone or with 1 μM BRL49653 from day 3
# Description: Adipocyte differentiation of Chub-S7 cells was tested under serum-free culture conditions. To promote pre-adipocyte differentiation, confluent cells were incubated with a basal medium (see Material and Methods) supplemented with 500 μM IBMX and 1 μM Dex for the first 3 days, and 1 μM of a PPARγ agonist (BRL49653) and 1 μM Dex from day 3 to 17. This condition was compared to the basal medium alone or supplemented with Dex plus IBMX from day 0 to 3 and Dex alone from day 3 to 17. To determine whether Chub-S7 cells were able to differentiate, the expression of adipocyte markers was assessed, by real-time RT-PCR, at different time points during cellular maturation. These markers included i) transcriptional factors involved in adipogenesis such as peroxisome proliferator-activated receptor γ (PPARγ) and CAAT/enhancer binding protein α (C/EBPα), ii) genes involved in lipid metabolism such as lipoprotein lipase (LPL) and adipocyte fatty acid binding protein (aP2), and finally iii) adipocyte secreted factors such as adipsin and leptin.
# Chub-S7 cells were cultured from day 0 to 17 in the presence of the basal medium as defined in Material and Methods (m), or in the basal medium with 1 μM Dex plus 500 μM IBMX from day 0 to 3 and dexamethasone from day 3 to 17 (●) or supplemented with 1 μM BRL49653 (▪). The arrow indicates the day from which BRL49653 was added to the medium. Relative gene expression was quantified by real-time RT-PCR. Data are the means±SEM of values obtained at least in four separate experiments. […] Top panels show representative RT-PCRs performed at a number of cycle defined according to the linear amplification of the genes (see Material and Methods).
# Cells were grown in a mixture of DMEM/F12 media supplemented with 10% FBS, 2 mM glutamine, 100 U/ml penicillin/streptamycin until confluency. For differentiation, cells were washed with PBS and cultured with a serum-free medium consisting of a mixture of DMEM/F12 media supplemented with 15 mM NaHCO3, 17 μM D-panthotenic acid, 15 mM Hepes, 33 μM biotin, 10 μg/ml transferrin, 1 nM triiodothyronin, 850 nM insulin and 500 μg/ml fetuin. This medium, referred to “basal medium” was supplemented with 1 μM dexamethasone (Dex) and 500 μM IBMX from day 0 to 3. Dex was maintained alone or with 1 μM BRL49653 from day 3 to 17 in order to promote differentiation. As stated in Results, oleic acid (OA) complexed with bovine serum albumin (BSA; ratio OA-to-BSA: 5: 1) was added to the medium containing BRL49653 from day 10 to 17. Lipid accumulation in differentiated cells was visualized by Oil red O staining as previously described (22). All the experiments on Chub-S7 cell characterization were performed between passages 18 and 32 (69 to 122 population doublings).
# RNAs from Chub-S7 cells cultured from day 0 to 17 were extracted using the NucleoSpin® Total RNA Purification System (Macherey-Nagel, Oensingen Switzerland). Reverse transcription was performed with an input of 10 μg of total RNA using the 1st strand cDNA synthesis kit for RT-PCR (AMV; Roche Biomedical, Basel, Switzerland) with oligo d(T)15 as primer. Real-time reverse transcription-polymerase chain reaction analyses were performed in a fluorescent temperature cycler (GeneAmp® PCR 5700 Sequence Detection System; Applied Biosystem) according to the recommendations of the manufacturer. Briefly, after initial denaturation at 50° C. for 2 min and 95° C. for 10 min, reactions were cycled 40 times using the following parameters for all genes studied: 95° C. for 15s, primer annealing and extension at 60° C. for 1 min. SYBR Green I fluorescence was detected at the end of each cycle to monitor the amount of PCR product formed during that cycle. Primers used for the amplification of cDNAs of interest were synthesized by Mycrosynth (Windisch, Switzerland).
# Cycle to cycle fluorescence emission was monitored and quantified using the GenAmp software provided by Applied Biosystem. […]
# Chub-S7 cells [2] = test: Lipolysis (glycerol release) in differentiated Chub-S7 cells; details: 1 μM isoproterenol, 1 h; day 17; cells differentiated with BRL49653
# Description: Lipolytic capacity of differentiated cells was assessed by measuring glycerol release, after stimulation or not for 1 h with 1 μM isoproterenol (Iso), a non-specific β-adrenergic agonist. Cells were differentiated in the presence of BRL49653 alone.
# A. Chub-S7 cells were differentiated in the presence of 1 μM Dex plus 500 μM IBMX from day 0 to 3 and dexamethasone plus 1 μM BRL49653 from day 3 to 17. Glycerol released in the medium was measured in the presence or in the absence of 1 μM isoproterenol. Data are the means of values obtained at least in four separate experiments. […] B. Chub-S7 cells were cultured from day 0 to 17 in the presence of the basal medium (m), or in the basal medium with 1 μM Dex plus 500 μM IBMX from day 0 to 3 and Dex from day3 to 17 (●) or supplemented with 1 μM BRL49653 (▪). Data are the means±SEM of values obtained at least in four separate experiments.
# (iv) Glycerol-3-phosphate dehydrogenase activity and lipolysis measurements Glycerol-3-phosphate dehydrogenase (GPDH) activity measured at different times during the differentiation process of Chub-S7 cells was determined using the enzymatic assay previously described (23). Lipolysis was determined at day 17 after confluency. […] Glycerol released in the medium was measured using the glycerokinase enzymatic radiometric assay described by Bradley and Kaslow (24).
# Chub-S7 cells [3] = test: Triglyceride accumulation in differentiated Chub-S7 cells (Oil red O staining); details: 100 μM OA complexed with BSA, day 10 to 17, in differentiation medium containing BRL49653
# Description: To study the ability of differentiated Chub-S7 cells to accumulate intracellular lipids, cells cultured for 17 days in the absence or in the presence of BRL49653 were fixed and stained with Oil-red O. Almost all the differentiated cells were able to accumulate at least one single lipid droplet and few of them presented large multilocular droplets (FIG. 10B).
# Chub-S7 cells were grown in the presence of the basal medium with 1 μM dexamethasone plus 500 μM IBMX from day 0 to 3 and Dex from day 3 to 17 or supplemented with 1 μM BRL49653 alone or in the presence of 100 μM OA from day 10 to 17. At day 17, cells were fixed and triglycerides were visualized using the oil-red O staining. A: Staining of culture wells containing Chub-S7 cells differentiated under the conditions described above. B: Morphology of Chub-S7 cells differentiated with dexamethasone and BRL49653 or in the same medium supplemented with oleate (Magnitude 400×). Data are representative of at least 3 independent experiments.
# Cells were grown in a mixture of DMEM/F12 media supplemented with 10% FBS, 2 mM glutamine, 100 U/ml penicillin/streptamycin until confluency. […]
Structure (SMILES),LPL mRNA fold-increase (Chub-S7 cells [1]) [fold-increase],aP2 mRNA fold-increase (Chub-S7 cells [1]) [fold-increase],further results
CN(CCOc1ccc(CC2SC(=O)NC2=O)cc1)c1ccccn1 (centres unmarked) [BRL49653],308,8372,"leptin mRNA, higher in presence of BRL49653 compared to Dex alone (Chub-S7 cells [1]; day 17, 1 μM BRL49653): 2 fold"
"C[C@@H]1C[C@H]2[C@@H]3CCC4=CC(=O)C=C[C@]4(C)[C@@]3(F)[C@@H](O)C[C@]2(C)[C@@]1(O)C(=O)CO [Dex, Dexamethasone]",16,8,
"CC(C)NCC(O)c1ccc(O)c(O)c1 (centres unmarked) [Iso, isoproterenol]",,,increase in lipolysis (glycerol release) (Chub-S7 cells [2]): 40.5%
"CCCCCCCC/C=C\CCCCCCCC(=O)O [OA, oleic acid]",,,"expression of LPL, C/EBPα, aP2, leptin and adipsin induced by BRL49653 (Chub-S7 cells [1]; 100 μM OA day 10 to 17, data not shown): did not affect; triglyceride content (Chub-S7 cells [3]): dramatic increase"
